# Test results: patent US20090286781A1, “Use of Suluble Guanylate Cyclase Acitvators for Treating Acute and Chronic Lung Diseases” (Bayer HealtHCare AG, priority 2005, published 2009)
# Test system: male C57B1/6J mice subjected to hypoxia (10% O2)
# Assay: Hypoxia model of experimental pulmonary hypertension
# Assay type: in vivo
# Conditions: hypoxia (10% O2) for 7 or 10 days; 300 ppm of compound in the feed for 10 days; lung histology; compared with the hypoxia control animals (FIG. 1)
# Description: The method for investigating the effect of the compound (IV) of the invention in the model of experimental pulmonary hypertension was as described (Dumitrascu R, Weissmann N, Ghofrani H A, Beuerlein K, Schmidt H H H W, Stasch J P, Gnoth M J, Seeger W, Grimminger F, Schermuly R T, Activation of soluble guanylate cyclase reverses lung vascular remodeling and pulmonary hypertension evoked by hypoxia in mice, Circulation 2006, 113: 286-295). For this purpose, male C57B1/6J mice (Charles River Laboratories) were subjected to hypoxia (10% O2) for 7 or 10 days. The control animals were kept in a normal oxygen environment. The mice were treated for 10 days with 300 ppm of compound (IV) in the feed. At the end of the test, the mice were sacrificed and the lungs were isolated. Histological workup and evaluation was carried out as in the abovementioned publication.
compound,measurement,value
COC(=O)N(C)c1c(N)nc(-c2nn(Cc3ccccc3F)c3ncccc23)nc1N [Compound (IV)],non-muscularized and partly muscularized fraction of the pulmonary vessels,significantly reduced
